What all share (assay): cell-based
The target in assay [1] is T1, δ (DOP) (h) (Homo sapiens, UniProt P41143).
T1 construct: gene OPRD1
Also on record: functional GPCR antagonist screen (Eurofins Cerep), percent inhibition of control agonist response. The note with it: antagonist effect, against control agonist; read-out: % Inhibition of Control Agonist Response, Mean.

Assay [2] addresses T2, LPA1(h) (Homo sapiens, UniProt Q92633).
T2 construct: gene LPAR1
Also on record: functional GPCR antagonist screen (Eurofins Cerep), percent inhibition of control agonist response. To be noted: antagonist effect, against control agonist; read-out: % Inhibition of Control Agonist Response, Mean.

Assay [3] addresses T3, M5 (h) (Homo sapiens, UniProt P08912).
T3 construct: gene CHRM5
Also on record: functional GPCR antagonist screen (Eurofins Cerep), percent inhibition of control agonist response. To be noted: antagonist effect, against control agonist; read-out: % Inhibition of Control Agonist Response, Mean.

The target of assay [4] is T4, S1P4 (h) (Homo sapiens, UniProt O95977).
T4 construct: gene S1PR4
Also on record: functional GPCR antagonist screen (Eurofins Cerep), percent inhibition of control agonist response. To be noted: antagonist effect, against control agonist; read-out: % Inhibition of Control Agonist Response, Mean.

Assay [5] has as its target T5, NK3 (h) (Homo sapiens, UniProt P29371).
T5 construct: gene TACR3
Further details: functional GPCR antagonist screen (Eurofins Cerep), percent inhibition of control agonist response. To be noted: antagonist effect, against control agonist; read-out: % Inhibition of Control Agonist Response, Mean.

Assay [6] deals with T6, EP1 (h) (Homo sapiens, UniProt P34995).
T6 construct: gene PTGER1
Further details: functional GPCR antagonist screen (Eurofins Cerep), percent inhibition of control agonist response. The note with it: antagonist effect, against control agonist; read-out: % Inhibition of Control Agonist Response, Mean.

For assay [7], the target named is T7, DP1 (h) (Homo sapiens, UniProt Q13258).
T7 construct: gene PTGDR
Also on record: functional GPCR antagonist screen (Eurofins Cerep), percent inhibition of control agonist response. The note with it: antagonist effect, against control agonist; read-out: % Inhibition of Control Agonist Response, Mean.

Assay [8] deals with T8, P2Y1 (h) (Homo sapiens, UniProt P47900).
T8 construct: gene P2RY1
Further details: functional GPCR antagonist screen (Eurofins Cerep), percent inhibition of control agonist response. To be noted: antagonist effect, against control agonist; read-out: % Inhibition of Control Agonist Response, Mean.

Assay [9] deals with T9, NTS2 (NT2) (h) (Homo sapiens, UniProt O95665).
T9 construct: gene NTSR2
Further details: functional GPCR antagonist screen (Eurofins Cerep), percent inhibition of control agonist response. To be noted: antagonist effect, against control agonist; read-out: % Inhibition of Control Agonist Response, Mean.

For assay [10], the target named is T10, OX1 (h) (Homo sapiens, UniProt O43613).
T10 construct: gene HCRTR1
Also on record: functional GPCR antagonist screen (Eurofins Cerep), percent inhibition of control agonist response. The note with it: antagonist effect, against control agonist; read-out: % Inhibition of Control Agonist Response, Mean.

Assay [11] addresses T11, PTH1 (h) (Homo sapiens, UniProt Q03431).
T11 construct: gene PTH1R
Further details: functional GPCR antagonist screen (Eurofins Cerep), percent inhibition of control agonist response. To be noted: antagonist effect, against control agonist; read-out: % Inhibition of Control Agonist Response, Mean.

For assay [12], the target named is T12, M3 (h) (Homo sapiens, UniProt P20309).
T12 construct: gene CHRM3
Further details: functional GPCR antagonist screen (Eurofins Cerep), percent inhibition of control agonist response. To be noted: antagonist effect, against control agonist; read-out: % Inhibition of Control Agonist Response, Mean.

The target in assay [13] is T13, MC3 (h) (Homo sapiens, UniProt P41968).
T13 construct: gene MC3R
Also on record: functional GPCR antagonist screen (Eurofins Cerep), percent inhibition of control agonist response. To be noted: antagonist effect, against control agonist; read-out: % Inhibition of Control Agonist Response, Mean.

The target of assay [14] is T14, S1P1 (h) (Homo sapiens, UniProt P21453).
T14 construct: gene S1PR1
Further details: functional GPCR antagonist screen (Eurofins Cerep), percent inhibition of control agonist response. The note with it: antagonist effect, against control agonist; read-out: % Inhibition of Control Agonist Response, Mean.

Assay [15] deals with T15, FP (h) (Homo sapiens, UniProt P43088).
T15 construct: gene PTGFR
Further details: functional GPCR antagonist screen (Eurofins Cerep), percent inhibition of control agonist response. To be noted: antagonist effect, against control agonist; read-out: % Inhibition of Control Agonist Response, Mean.

Assay [16] deals with T16, NOP (h) (ORL1) (Homo sapiens, UniProt P41146).
T16 construct: gene OPRL1
Also on record: functional GPCR antagonist screen (Eurofins Cerep), percent inhibition of control agonist response. To be noted: antagonist effect, against control agonist; read-out: % Inhibition of Control Agonist Response, Mean.

Assay [17] has as its target T17, M1 (h) (Homo sapiens, UniProt P11229).
T17 construct: gene CHRM1
Further details: functional GPCR antagonist screen (Eurofins Cerep), percent inhibition of control agonist response. To be noted: antagonist effect, against control agonist; read-out: % Inhibition of Control Agonist Response, Mean.

The target in assay [18] is T18, EP4 (h) (Homo sapiens, UniProt P35408).
T18 construct: gene PTGER4
Further details: functional GPCR antagonist screen (Eurofins Cerep), percent inhibition of control agonist response. To be noted: antagonist effect, against control agonist; read-out: % Inhibition of Control Agonist Response, Mean.

The target of assay [19] is T19, M2 (h) (Homo sapiens, UniProt P08172).
T19 construct: gene CHRM2
Further details: functional GPCR antagonist screen (Eurofins Cerep), percent inhibition of control agonist response. The note with it: antagonist effect, against control agonist; read-out: % Inhibition of Control Agonist Response, Mean.

Assay [20] concerns the target T20, LPA3 (h) (Homo sapiens, UniProt Q9UBY5).
T20 construct: gene LPAR3
Further details: functional GPCR antagonist screen (Eurofins Cerep), percent inhibition of control agonist response. The note with it: antagonist effect, against control agonist; read-out: % Inhibition of Control Agonist Response, Mean.

In assay [21] the target is T21, PAR2 (h) (Homo sapiens, UniProt P55085).
T21 construct: gene F2RL1
Further details: functional GPCR antagonist screen (Eurofins Cerep), percent inhibition of control agonist response. To be noted: antagonist effect, against control agonist; read-out: % Inhibition of Control Agonist Response, Mean.

Assay [22] concerns the target T22, PAF (h) (Homo sapiens, UniProt P25105).
T22 construct: gene PTAFR
Also on record: functional GPCR antagonist screen (Eurofins Cerep), percent inhibition of control agonist response. To be noted: antagonist effect, against control agonist; read-out: % Inhibition of Control Agonist Response, Mean.

Assay [23] deals with T23, MrgD (h) (Homo sapiens, UniProt Q8TDS7).
T23 construct: gene MRGPRD
Also on record: functional GPCR antagonist screen (Eurofins Cerep), percent inhibition of control agonist response. The note with it: antagonist effect, against control agonist; read-out: % Inhibition of Control Agonist Response, Mean.

In assay [24] the target is T24, TGR5 (Homo sapiens, UniProt Q8TDU6).
T24 construct: gene GPBAR1
Also on record: Eurofins Cerep functional GPCR screen, antagonist mode, inhibition of control agonist response. To be noted: read-out: % Inhibition of Control Agonist Response, Mean.

For orientation: inhibition means the relative decrease from the control value, in per cent.

T19 sequence (P08172 whole entry): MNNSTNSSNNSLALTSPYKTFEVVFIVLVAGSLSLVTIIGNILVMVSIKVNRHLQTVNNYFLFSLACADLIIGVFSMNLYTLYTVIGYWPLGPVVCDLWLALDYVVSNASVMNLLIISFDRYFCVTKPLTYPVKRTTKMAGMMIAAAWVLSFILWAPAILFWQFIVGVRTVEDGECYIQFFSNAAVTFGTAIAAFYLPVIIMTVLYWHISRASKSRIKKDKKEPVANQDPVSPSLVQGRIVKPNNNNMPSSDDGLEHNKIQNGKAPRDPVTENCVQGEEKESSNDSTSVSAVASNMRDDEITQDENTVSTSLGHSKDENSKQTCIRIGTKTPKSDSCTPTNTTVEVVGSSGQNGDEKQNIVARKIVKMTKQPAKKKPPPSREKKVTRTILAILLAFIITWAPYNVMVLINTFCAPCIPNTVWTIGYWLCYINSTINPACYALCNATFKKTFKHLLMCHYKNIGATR
T16 sequence (P41146 whole entry): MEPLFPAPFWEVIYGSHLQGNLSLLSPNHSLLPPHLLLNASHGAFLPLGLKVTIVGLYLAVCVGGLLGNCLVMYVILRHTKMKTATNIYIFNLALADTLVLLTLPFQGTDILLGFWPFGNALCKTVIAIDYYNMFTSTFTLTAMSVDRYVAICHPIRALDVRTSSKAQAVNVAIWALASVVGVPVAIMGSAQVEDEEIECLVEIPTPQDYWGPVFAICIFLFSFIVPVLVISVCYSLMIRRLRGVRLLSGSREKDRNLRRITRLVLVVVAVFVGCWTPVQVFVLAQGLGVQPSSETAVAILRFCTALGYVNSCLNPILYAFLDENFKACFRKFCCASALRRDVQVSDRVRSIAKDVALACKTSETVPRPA
T11 sequence (Q03431 whole entry): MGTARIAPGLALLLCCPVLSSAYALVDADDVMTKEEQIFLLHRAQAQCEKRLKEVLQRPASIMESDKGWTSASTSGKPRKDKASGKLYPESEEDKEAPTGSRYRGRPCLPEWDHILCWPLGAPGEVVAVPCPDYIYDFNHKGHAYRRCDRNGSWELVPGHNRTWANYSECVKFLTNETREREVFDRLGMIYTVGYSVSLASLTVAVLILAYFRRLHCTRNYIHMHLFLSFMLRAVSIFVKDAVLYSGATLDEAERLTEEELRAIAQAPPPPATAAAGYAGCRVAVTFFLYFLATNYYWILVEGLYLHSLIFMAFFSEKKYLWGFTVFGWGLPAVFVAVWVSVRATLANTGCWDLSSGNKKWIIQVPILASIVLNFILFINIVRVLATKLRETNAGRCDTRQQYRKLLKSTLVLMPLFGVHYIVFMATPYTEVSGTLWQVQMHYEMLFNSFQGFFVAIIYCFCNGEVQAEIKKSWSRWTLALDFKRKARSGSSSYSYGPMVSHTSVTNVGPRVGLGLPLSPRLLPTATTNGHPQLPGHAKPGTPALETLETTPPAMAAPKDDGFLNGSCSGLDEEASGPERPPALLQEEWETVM
T21 sequence (P55085 whole entry): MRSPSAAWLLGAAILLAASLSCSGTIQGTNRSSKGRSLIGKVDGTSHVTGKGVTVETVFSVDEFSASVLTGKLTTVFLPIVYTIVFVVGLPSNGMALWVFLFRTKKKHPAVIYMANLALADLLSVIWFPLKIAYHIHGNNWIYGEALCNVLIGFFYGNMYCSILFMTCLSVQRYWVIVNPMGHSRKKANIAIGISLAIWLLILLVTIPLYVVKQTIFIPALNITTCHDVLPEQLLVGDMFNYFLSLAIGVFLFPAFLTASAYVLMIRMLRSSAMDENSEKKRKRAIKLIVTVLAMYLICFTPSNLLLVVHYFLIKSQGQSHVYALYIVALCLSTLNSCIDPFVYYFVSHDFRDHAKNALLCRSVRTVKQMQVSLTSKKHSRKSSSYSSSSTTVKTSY
T9 sequence (O95665 whole entry): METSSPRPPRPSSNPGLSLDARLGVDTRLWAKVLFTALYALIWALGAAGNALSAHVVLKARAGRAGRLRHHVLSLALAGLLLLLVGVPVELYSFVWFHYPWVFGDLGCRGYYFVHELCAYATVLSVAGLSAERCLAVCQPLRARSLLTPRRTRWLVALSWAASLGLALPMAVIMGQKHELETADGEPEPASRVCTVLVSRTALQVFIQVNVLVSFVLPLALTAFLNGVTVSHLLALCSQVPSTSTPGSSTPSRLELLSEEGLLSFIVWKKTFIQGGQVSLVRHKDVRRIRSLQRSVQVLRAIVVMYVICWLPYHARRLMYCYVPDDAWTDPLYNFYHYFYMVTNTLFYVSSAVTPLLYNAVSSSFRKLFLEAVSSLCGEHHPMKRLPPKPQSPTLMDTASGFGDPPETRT
T2 sequence (Q92633 whole entry): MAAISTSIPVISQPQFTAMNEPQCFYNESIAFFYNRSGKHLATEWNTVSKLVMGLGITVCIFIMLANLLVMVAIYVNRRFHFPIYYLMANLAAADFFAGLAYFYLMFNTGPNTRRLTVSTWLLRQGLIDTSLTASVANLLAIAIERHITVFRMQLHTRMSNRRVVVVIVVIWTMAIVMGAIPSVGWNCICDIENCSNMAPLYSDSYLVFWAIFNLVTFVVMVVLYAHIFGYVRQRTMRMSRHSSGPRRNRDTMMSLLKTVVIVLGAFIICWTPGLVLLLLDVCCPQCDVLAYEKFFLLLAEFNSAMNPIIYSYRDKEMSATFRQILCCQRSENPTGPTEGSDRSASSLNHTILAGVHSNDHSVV
T6 sequence (P34995 whole entry): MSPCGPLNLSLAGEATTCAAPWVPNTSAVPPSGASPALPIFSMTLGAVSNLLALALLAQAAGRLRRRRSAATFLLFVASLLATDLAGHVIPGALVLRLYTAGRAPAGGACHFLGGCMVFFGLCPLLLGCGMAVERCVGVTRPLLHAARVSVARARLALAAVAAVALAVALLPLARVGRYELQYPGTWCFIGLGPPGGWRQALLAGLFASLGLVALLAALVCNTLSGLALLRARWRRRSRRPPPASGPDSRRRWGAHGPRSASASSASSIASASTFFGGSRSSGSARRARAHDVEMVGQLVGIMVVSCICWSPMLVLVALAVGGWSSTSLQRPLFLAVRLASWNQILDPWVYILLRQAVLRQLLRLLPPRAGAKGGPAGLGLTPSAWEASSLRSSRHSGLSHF
T13 sequence (P41968 whole entry): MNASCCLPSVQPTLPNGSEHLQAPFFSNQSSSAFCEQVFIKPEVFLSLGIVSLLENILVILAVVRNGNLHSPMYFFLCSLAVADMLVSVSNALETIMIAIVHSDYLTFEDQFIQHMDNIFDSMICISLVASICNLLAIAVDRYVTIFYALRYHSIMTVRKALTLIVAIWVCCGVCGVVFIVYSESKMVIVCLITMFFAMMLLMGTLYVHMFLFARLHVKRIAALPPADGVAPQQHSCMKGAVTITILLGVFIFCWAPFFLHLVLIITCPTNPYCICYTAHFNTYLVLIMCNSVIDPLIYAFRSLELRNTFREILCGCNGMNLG
T15 sequence (P43088 whole entry): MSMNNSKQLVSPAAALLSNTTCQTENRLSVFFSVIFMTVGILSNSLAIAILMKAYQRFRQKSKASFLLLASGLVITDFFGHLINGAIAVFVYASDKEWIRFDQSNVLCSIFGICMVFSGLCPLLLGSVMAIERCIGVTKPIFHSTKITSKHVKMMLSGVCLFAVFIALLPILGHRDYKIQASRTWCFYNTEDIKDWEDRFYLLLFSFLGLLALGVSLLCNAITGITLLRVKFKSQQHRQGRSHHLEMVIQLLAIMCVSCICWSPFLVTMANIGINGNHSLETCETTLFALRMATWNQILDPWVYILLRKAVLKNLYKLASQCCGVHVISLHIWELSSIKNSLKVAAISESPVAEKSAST
T1 sequence (P41143 whole entry): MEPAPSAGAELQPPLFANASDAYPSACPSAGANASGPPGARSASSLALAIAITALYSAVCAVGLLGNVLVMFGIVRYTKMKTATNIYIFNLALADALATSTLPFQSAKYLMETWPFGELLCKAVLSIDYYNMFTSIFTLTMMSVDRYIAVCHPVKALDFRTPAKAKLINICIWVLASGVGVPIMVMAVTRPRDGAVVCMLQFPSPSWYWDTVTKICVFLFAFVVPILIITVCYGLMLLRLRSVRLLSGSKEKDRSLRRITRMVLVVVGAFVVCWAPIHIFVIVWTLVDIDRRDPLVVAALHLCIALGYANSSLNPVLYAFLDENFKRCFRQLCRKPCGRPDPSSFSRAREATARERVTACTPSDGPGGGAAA
T17 sequence (P11229 whole entry): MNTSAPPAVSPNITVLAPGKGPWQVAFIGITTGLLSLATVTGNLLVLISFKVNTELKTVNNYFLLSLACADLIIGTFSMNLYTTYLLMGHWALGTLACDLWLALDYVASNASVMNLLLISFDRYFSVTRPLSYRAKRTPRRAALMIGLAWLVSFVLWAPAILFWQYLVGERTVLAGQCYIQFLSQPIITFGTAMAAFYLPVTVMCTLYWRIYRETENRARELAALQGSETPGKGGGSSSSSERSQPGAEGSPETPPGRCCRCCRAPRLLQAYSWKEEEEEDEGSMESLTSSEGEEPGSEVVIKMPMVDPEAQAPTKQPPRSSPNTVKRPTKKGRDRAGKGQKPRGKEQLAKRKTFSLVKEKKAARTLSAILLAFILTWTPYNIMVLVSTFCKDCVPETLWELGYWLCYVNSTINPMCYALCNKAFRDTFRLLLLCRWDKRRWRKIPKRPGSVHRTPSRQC
T23 sequence (Q8TDS7 whole entry): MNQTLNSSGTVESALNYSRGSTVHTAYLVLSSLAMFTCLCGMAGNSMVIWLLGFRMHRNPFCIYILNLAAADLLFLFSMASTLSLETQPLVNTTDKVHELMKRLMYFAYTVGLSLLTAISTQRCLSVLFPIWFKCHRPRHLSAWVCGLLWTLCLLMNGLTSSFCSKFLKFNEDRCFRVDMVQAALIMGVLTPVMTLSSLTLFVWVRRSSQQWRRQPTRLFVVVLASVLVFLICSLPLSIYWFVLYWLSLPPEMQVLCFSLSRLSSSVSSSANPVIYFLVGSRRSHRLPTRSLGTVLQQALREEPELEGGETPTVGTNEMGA

As for `[O-][S@@+](Cc1cncs1)C(c1ccccc1)c1ccccc1` [S-CE-123, (S)-5-((Benzhydrylsulfinyl)Methyl)Thiazole], the inhibition at 2.8 µM in assay [1] was -2.8%; in assay [2], 4.4%; in [3], -5.9%; in assay [4] it was -14.6%; in assay [5], -5.1%; in assay [6] it was -11.9%. In addition, the inhibition at 2.8 µM in assay [7] is -2.5%; in assay [8] it was -6.7%; in [9], 22.9%; in assay [10], -14.5%; in assay [11] it was -10.6%; in assay [12], 0.8%. Moreover, the inhibition at 2.8 µM is -7.8% in assay [13]; 5.9% in assay [14]; 6.7% in assay [15]; 18.4% in assay [16]; 2.6% in [17]; -1.5% in assay [18]. The inhibition at 2.8 µM in assay [19] is -9.2%; in assay [20], -34.4%; in assay [21], -19.4%; in assay [22], -39.1%; in [23], 30%; in assay [24], -0.3%.
